Assay results: patent US9492433B2, “Pharmaceutical composition for the treatment of Duchenne muscular dystrophy” (Summit Corporation Plc, priority 2012, dated 2016)
Values after ≈ are worked out from the molar mass of the structure shown. Where two headings read alike, the source gives them in different places.

Tests used:
Format in all cases: physicochemical
[1] = Solubility of C1100 Form I in pharmaceutically-acceptable solvents at 20° C. (HPLC of saturated solutions); details: organic solvent or mixture, thermodynamic from solid, Form I polymorph, 4 hours equilibration
Protocol: In each case, about 25 mg of drug substance was allowed to equilibrate with 250 μL of solvent over 4 hours. The resulting saturated solutions were filtered and analysed by HPLC.

[2] = Solubility in water and corn oil
[3] = Water/octanol partition coefficient (ProfilerLDA isocratic chromatography); details: octanol/water (octanol-coated column), pH 7.4; read-out: log D (water/octanol partition coefficient)
Protocol: The water/octanol partition coefficient was determined with a ProfilerLDA isocratic chromatography system, using an octanol-coated column with octanol-saturated mobile phases.

[4] = Gravimetric vapour sorption analysis; details: Form I
Source text: Form I was subjected to gravimetric vapour sorption analysis, ramping profile from 0 to 90% RH at 10% RH increments.

Question: With `CCS(=O)(=O)c1ccc2oc(-c3ccc4ccccc4c3)nc2c1` [C1100, 5-(ethylsulfonyl)-2-(naphthalen-2-yl)benzo[d]oxazole] as the compound, how does the solubility at 4 h ([1]; solvent 1,4-dioxane) read?
Answer: 28400 µg/mL (≈ 84.2 mM)

Question: And the solubility at 4 h ([1]; solvent 1-butanol)?
Answer: 350 µg/mL (≈ 1.04 mM)

Question: And the solubility at 4 h ([1]; solvent 1-propanol)?
Answer: 790 µg/mL (≈ 2.34 mM)

Question: And the solubility at 4 h ([1]; solvent 2-butanol)?
Answer: 850 µg/mL (≈ 2.52 mM)

Question: What about the solubility at 4 h ([1]; solvent 2-propanol) of the same compound?
Answer: 470 µg/mL (≈ 1.39 mM)

Question: What about the solubility at 4 h ([1]; solvent Acetone) of the same compound?
Answer: 27500 µg/mL (≈ 81.6 mM)

Question: What about the solubility at 4 h ([1]; solvent Acetonitrile) of the same compound?
Answer: 5440 µg/mL (≈ 16.1 mM)

Question: What about the solubility at 4 h ([1]; solvent Butan-2-one) of the same compound?
Answer: 3120 µg/mL (≈ 9.25 mM)

Question: And the solubility at 4 h ([1]; solvent Chloroform)?
Answer: > 50000 µg/mL

Question: What about the solubility at 4 h ([1]; solvent Dimethylformamide) of the same compound?
Answer: > 33800 µg/mL

Question: And the solubility at 4 h ([1]; solvent Dimethylsulfoxide)?
Answer: 13200 µg/mL (≈ 39.1 mM)

Question: What about the solubility at 4 h ([1]; solvent Ethanol) of the same compound?
Answer: 1140 µg/mL (≈ 3.38 mM)

Question: What about the solubility at 4 h ([1]; solvent Ethyl acetate) of the same compound?
Answer: 8360 µg/mL (≈ 24.8 mM)

Question: And the solubility at 4 h ([1]; solvent Heptane)?
Answer: 10900 µg/mL (≈ 32.4 mM)

Question: And the solubility at 4 h ([1]; solvent Methanol)?
Answer: 1060 µg/mL (≈ 3.14 mM)

Question: What about the solubility at 4 h ([1]; solvent Tetrahydrofuran) of the same compound?
Answer: 25900 µg/mL (≈ 76.8 mM)

Question: What about the solubility at 4 h ([1]; solvent Toluene) of the same compound?
Answer: 8500 µg/mL (≈ 25.2 mM)

Question: What about the solubility at 4 h ([1]; solvent tert-butyl methyl ether (TBME)) of the same compound?
Answer: 11700 µg/mL (≈ 34.6 mM)

Question: What about the solubility ([2]; oil or lipid, corn oil, very slightly soluble, read-out: Solubility in corn oil) of the same compound?
Answer: 600 µg/mL (≈ 1.78 mM)

Question: What about the solubility ([2]; water, practically insoluble, read-out: Solubility in water) of the same compound?
Answer: < 1 µg/mL

Question: What about the chromatographic logD [3] of the same compound?
Answer: 3.99 ± 0.01

Question: What about the Moisture absorbed ([4]; 0 to 90% RH at 10% RH increments, up to 90% RH, reversed under dry-air conditions) of the same compound?
Answer: no more than 0.25 % by weight

Question: What about the Hygroscopicity ([4]; based on vapour sorption results) of the same compound?
Answer: not hygroscopic
